We go through 33 molecules from patent publication US9149465B2, “Isoxazolines as inhibitors of fatty acid amide hydrolase” (Infinity Pharmaceuticals, Inc., priority 2009, dated 2015).

SMILES strings stand for the structures. Where only a bound is given, the exact number is not on record here.

The experiment deals with T1, human FAAH (Homo sapiens, UniProt O00519).
T1 construct: host or cells: COS-7 cells, transient transfection; 13,000 g membrane fraction solubilised in 1% Triton X-100
T1 sequence (O00519 1-579): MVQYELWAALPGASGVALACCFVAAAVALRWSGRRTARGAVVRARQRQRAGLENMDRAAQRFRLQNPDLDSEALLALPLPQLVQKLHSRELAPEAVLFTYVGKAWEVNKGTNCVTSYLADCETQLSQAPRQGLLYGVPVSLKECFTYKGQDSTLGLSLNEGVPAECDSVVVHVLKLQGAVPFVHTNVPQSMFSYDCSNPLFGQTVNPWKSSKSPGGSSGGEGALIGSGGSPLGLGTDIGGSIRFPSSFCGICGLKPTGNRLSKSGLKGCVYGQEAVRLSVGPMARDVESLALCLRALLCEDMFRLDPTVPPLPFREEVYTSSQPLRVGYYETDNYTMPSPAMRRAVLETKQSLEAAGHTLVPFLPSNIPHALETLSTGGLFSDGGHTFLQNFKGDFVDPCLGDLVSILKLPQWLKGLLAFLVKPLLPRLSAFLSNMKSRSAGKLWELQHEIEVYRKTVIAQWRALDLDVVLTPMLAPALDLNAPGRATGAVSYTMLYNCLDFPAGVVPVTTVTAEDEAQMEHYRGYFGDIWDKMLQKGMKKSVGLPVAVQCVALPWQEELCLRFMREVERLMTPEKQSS
The experiment can be described thus: Inhibition of human FAAH (AMC arachidonoyl amide fluorescence assay). The format is biochemical. As to conditions: inhibitor preincubated 30 minutes at room temperature; 20 μM AMC arachidonoyl amide; 4 hours; read-out: Activity (Ki, inhibitors of human FAAH). In outline:
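Solubilized membrane fraction from COS-7 cells transiently expressing human FAAH (0.05 mg/mL final) preincubated 30 min at room temperature with 3-fold serially diluted inhibitor, then reacted 4 h at room temperature with 20 μM AMC arachidonoyl amide. Stopped with α-ketoheterocycle; fluorescence read. Ki from single-site competitive fit, Km fixed at 12 μM.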
On to `O=C(OCc1ccccc1)c1ccc(C2CC(Br)=NO2)cc1` (single isomer, unassigned) [I-21], for which the Ki (in general, the equilibrium dissociation constant of an inhibitor or competing ligand from its target) is at most 100 nM.

Turning to `c1ccc(OC2=NOC(c3ccc(Oc4ccccc4)cc3)C2)cc1` (single isomer, unassigned) [I-23], the inhibitory constant (Ki) is at least 1000 nM.

Take `Fc1ccc(OC2=NOC(c3ccc(Oc4ccccc4)cc3)C2)cc1` (single isomer, unassigned) [I-24]: the inhibition constant (Ki) is at least 1000 nM.

Regarding `Fc1cccc(OC2=NOC(c3ccc(Oc4ccccc4)cc3)C2)c1` (single isomer, unassigned) [I-25], the Ki lay within 100 to 1000 nM.

With `FC(F)(F)c1cccc(OC2=NOC(c3ccc(Oc4ccccc4)cc3)C2)c1` (single isomer, unassigned) [I-26], the inhibition constant (Ki) was at least 1000 nM.

Take `N#Cc1ccc(OC2=NOC(c3ccc(Oc4ccccc4)cc3)C2)cc1` (single isomer, unassigned) [I-27]: the inhibition constant (Ki) is at most 100 nM.

Take `N#Cc1ccccc1OC1=NOC(c2ccc(Oc3ccccc3)cc2)C1` (single isomer, unassigned) [I-28]: the Ki is at least 1000 nM.

In the case of `O=[N+]([O-])c1ccc(OC2=NOC(c3ccc(Oc4ccccc4)cc3)C2)cc1` (single isomer, unassigned) [I-29], the Ki is 100 to 1000 nM.

With `CS(=O)(=O)c1ccc(OC2=NOC(c3ccc(Oc4ccccc4)cc3)C2)cc1` (single isomer, unassigned) [I-30], the Ki is at most 100 nM.

Turning to `Cc1ccc(OC2=NOC(c3ccc(Oc4ccccc4)cc3)C2)cc1F` (single isomer, unassigned) [I-31], the Ki is at least 1000 nM.

Consider `c1ccc(NC2=NOC(c3ccc(Oc4ccccc4)cc3)C2)cc1` (single isomer, unassigned) [I-32], for which the Ki is at least 1000 nM.

For `O=c1ccccn1C1=NOC(c2ccc(Oc3ccccc3)cc2)C1` (single isomer, unassigned) [I-33], the Ki is at least 1000 nM.

Regarding `c1ccc(Oc2ccc(C3CC(n4cncn4)=NO3)cc2)cc1` (single isomer, unassigned) [I-34], the inhibition constant (Ki) was at least 1000 nM.

In the case of `c1ccc(Oc2ccc(C3CC(n4cccn4)=NO3)cc2)cc1` (single isomer, unassigned) [I-35], the Ki was at least 1000 nM.

Consider `c1ccc(Oc2ccc(C3CC(Oc4ccncc4)=NO3)cc2)cc1` (single isomer, unassigned) [I-36], for which the inhibition constant (Ki) was at least 1000 nM.

For `c1ccc(Oc2ccc(C3CC(Oc4cccnc4)=NO3)cc2)cc1` (single isomer, unassigned) [I-37], the inhibition constant (Ki) is at most 100 nM.

As to `COC(=O)c1cncc(OC2=NOC(c3ccc(Oc4ccccc4)cc3)C2)c1` (single isomer, unassigned) [I-39], the inhibition constant (Ki) is at most 100 nM.

With `Cc1ccc(OC2=NOC(c3ccc(Oc4ccccc4)cc3)C2)cn1` (single isomer, unassigned) [I-40], the Ki is at most 100 nM.

Take `c1ccc(Oc2ccc(C3CC(Oc4cncnc4)=NO3)cc2)cc1` (single isomer, unassigned) [I-41]: the Ki is at most 100 nM.

In the case of `c1ccc(Oc2ccc(C3CC(Oc4cnc5ccccc5c4)=NO3)cc2)cc1` (single isomer, unassigned) [I-42], the inhibitory constant (Ki) was at most 100 nM.

In the case of `Fc1cncc(OC2=NOC(c3ccc(Oc4ccccc4)cc3)C2)c1` (single isomer, unassigned) [I-43], the inhibition constant (Ki) is at most 100 nM.

In the case of `Cn1ccc2cc(OC3=NOC(c4ccc(Oc5ccccc5)cc4)C3)cnc21` (single isomer, unassigned) [I-44], the Ki was 100 to 1000 nM.

For the molecule `COC1=NOC(c2ccc(Oc3ccccc3)cc2)C1` (single isomer, unassigned) [I-45], the Ki is at least 1000 nM.

With `COC(=O)c1cncc(OC2=NOC(c3ccc(OC(F)(F)F)cc3)C2)c1` (single isomer, unassigned) [I-46], the Ki was 100 to 1000 nM.

As to `NC(=O)c1cncc(OC2=NOC(c3ccc(Oc4ccccc4)cc3)C2)c1` (single isomer, unassigned) [I-47], the Ki was in the range of 100 to 1000 nM.

Take `BrC1=NO[C@H](Cc2ccccc2)C1` (single isomer, unassigned) [I-48]: the Ki was at least 1000 nM.

With `BrC1=NOC(CCc2ccccc2)C1` (single isomer, unassigned) [I-49], the Ki lay in the range of 100 to 1000 nM.

As for `BrC1=NOC(CCOc2ccccc2)C1` (single isomer, unassigned) [I-50], the Ki lay within 100 to 1000 nM.

In the case of `BrC1=NOC(CCCOc2ccccc2)C1` (single isomer, unassigned) [I-51], the Ki is at most 100 nM.

Consider `BrC1=NOC(COCCc2ccccc2)C1` (single isomer, unassigned) [I-52], for which the Ki lay in the range of 100 to 1000 nM.

Regarding `CC1C(Br)=NOC1c1ccc(Oc2ccccc2)cc1` (stereo not drawn) [I-78], the inhibitory constant (Ki) was at most 100 nM.

As for `CC1C(Br)=NOC1c1ccc(Oc2ccccc2)cc1` (stereo not drawn) [I-82], the inhibitory constant (Ki) fell in the range of 100 to 1000 nM.

Regarding `Nc1ccc(OC2=NOC(c3ccc(Oc4ccccc4)cc3)C2)cn1` (stereo not drawn) [I-93], the Ki was at most 100 nM.
